From patent US20250163522A1, “METHODS FOR PRESERVING HEALTHY INTESTINAL MICROBIOME DURING GROWTH PROMOTER ADMINSTRATION” (BIOMEDIT, LLC, priority 2022, published 2025)
Entries after “also recorded” stand apart in the source; their conditions may differ.

Legend:
Type in all cases: in vivo, chickens (Gallus gallus)
cecal microbiome [1] = test: Shotgun metagenomics (functional/taxonomic profiles, GSEA) of cecal microbiome, day 35 broilers; conditions: for functional processes enriched in cecal microbiome relative to controls (GSEA): day 35 cecal samples
Protocol: 74 frozen cecal samples from day 35 birds were sent to CosmosID (Rockville, MD) for shotgun metagenomics sequencing. DNA was extracted using the ZymoBIOMICS DNA Miniprep Kit (ZymoBIOMICS, Irvine, CA) according to the manufacturers protocol. The isolated DNA was quantified by Qbit (ThermoFisher, Coon Rapids, MN). DNA libraries were prepared using the Illumina Nextera XT library preparation kit (Illumina, San Diego, CA), with a modified protocol. Libraries were then sequenced on an Illumina HiSeq platform 2×150 bp.
Reads were trimmed and Illumina adapters removed using Trimmomatic (v 0.39) (Bolger et al., Bioinformatics 30, 2114-2120 (2014)) with options SLIDINGWINDOW:5:20 LEADING:3 TRAILING:3. Host reads (Gallus gallus, GenBank assembly GCA_000002315) and spike-in reads from Vibrio harveyii (ATCC 14126) were removed using Bowtie2 (v. 2.3.5.1) (Langmead et al., Nat Methods 9, 357-359 (2012)).
Taxonomic profiling of individual reads was carried out using Kaiju (v. 1.7.3) (Menzel et al., Nat Commun 7, 11257 (2016)) with the nr_euk database. Kaiju outputs were summarized for each read as the number of bases aligned to proteins in the reference database. In cases of individual reads mapping to more than one taxonomic group, the number of bases assigned to each taxon was calculated as the alignment length (in base pairs) multiplied by the fraction of bases assigned unambiguously to said taxon out of all the taxa to which the read mapped. The numbers of assigned bases per read were used to estimate species-level relative abundances using metametamerge (v. 1.1) (Piro, V. C., et al., Microbiome 5, 101 (2017).) taking into account the average coding length per species in the nr_euk database.
Functional profiling was done by first assembling the reads from each sample into contigs using Spades (v. 3.13.1, option --meta) (Nurk, S. et al., Genome Res 27, 824-834 (2017)), with default parameters, followed by protein prediction with Prokka (v. 1.14.5) (Seemann, T. Prokka: Bioinformatics 30, 2068-2069 (2014).). Predicted protein sequences were aligned to a reference database and using Diamond (v. 0.9.30) (Buchfink, B. et al. Nat Methods 18, 366-368 (2021)) and annotated based on the function assigned to the top hit in the database. To avoid misannotations, (Plata, G. et al. Nat Chem Biol 8, 848-854 (2012)) the inventors only considered hits with at least 70% identity and 70% query coverage. The reference database was built starting from 46,181 complete bacterial genomes downloaded from the PATRIC (Davis, J. J. et al. Nucleic Acids Res 48, D606-D612 (2020)) database representing at most 10 genomes per species from ˜400 taxonomic families including those most frequently observed in broiler microbiomes. To speed up functional annotations, protein sequences within each family in the database were clustered at 90% sequence identity using CD-HIT (v. 4.8.1) (Huang, Y. et al. Bioinformatics 26, 680-682 (2010)) and the longest sequence from each cluster was kept for the diamond search.
To quantify the abundance of each function per sample, reads were mapped to the corresponding contigs using BWA (v. 0.7.17) (Li, H. & Durbin, R. Bioinformatics 25, 1754-1760 (2009)), and reads mapping to each predicted protein were counted with HTseq (v. 0.11.3) (Anders, S. et al. Bioinformatics 31, 166-169 (2015)). Read counts per RAST functional role were TPM normalized based on the Prokka protein lengths (Zhao, S. et. al. RNA 26, 903-909 (2020)) and expressed in units of mean copy numbers per genome by calculating a normalization factor such that the median abundance of a set of universal-single copy bacterial genes (Creevey, C. J. et al. PLOS One 6, e22099 (2011)) was set to 1 (Manor, O. & Borenstein, E. Genome Biology 16, 53 (2015)). A similar procedure was used to produce a copy-number normalized matrix of functional roles across samples stratified by the bacterial genera of the protein hits used to transfer functional annotations. […]

Ross 708 male broilers = test: Clinical study of in-feed AGPs in broilers: weight gain and feed conversion; conditions: in-feed: 50 g/ton BMD, 20 g/ton avilamycin, 16.5 g/ton virginiamycin, 70 g/ton narasin; 35 days
Excerpt: 500 healthy Ross 708 male broilers sourced from a commercial hatchery were used in the experiment. […] Birds were individually tagged with a unique identifier and were randomly assigned to one of 25 floor pens (20 animals per pen). Groups of 5 pens were assigned to each of 5 different treatments. The 5 treatments included: 1) control birds fed least-cost diets as follows: A starter diet was fed from days 0 to 14 of the study, followed by a grower diet (14-28d) and a finisher diet (28-35d). 2) Birds fed the above diets supplemented with 50 g/ton BMD. 3) Supplemented with 20 g/ton avilamycin. 4) Supplemented with 16.5 g/ton Virginiamycin. And 5) supplemented with 70 g/ton narasin. Birds were raised for 35 days in a barn on top of used litter.
Individual body weights were collected on days 0, 7, 21 and 35. Pen weights were collected on days 14 and 28. Feed weigh backs for each pen were done on days 7, 14, 21, 28 and 35 of the study. Average bird weights and feed intake per pen were used to calculate weekly values of average daily gain and feed conversion ratios. Weekly values were compared between treatments using the Mann Whitney U test. On days 7, 21 and 35 three birds per pen were randomly selected and euthanized for the collection of cecal contents and blood. Blood was collected via wing vein venipuncture, except for birds that were too small, in which cases direct heart puncture was used. In both cases, blood was collected into vacutainer tubes and centrifuged to obtain serum. Cecal samples were collected by aseptically squeezing the cecum content into a sterile tube. Cecal samples were placed on dry ice immediately after collection. All samples were stored at −80° C. until processing.

cecal microbiome [2] = test: 16S rRNA amplicon profiling of cecal microbiome of AGP treated broilers; conditions: days 21 and 35
Protocol: Total DNA from frozen cecal content samples were extracted using the Lysis and Purity kit (Shoreline Biome, Farmington, CT) following the manufacturer's protocol. The resulting DNA was used for library preparation with the Shoreline Biome V4 16S DNA Purification and Library Prep Kit (Shoreline Biome, Farmington, CT). PCR amplification of the V4 region of the 16S rRNA gene was performed using the 515F (5′[…]) and 806R (5′-[…]) primers. The resulting amplicons were then sequenced using 2×250 bp paired-end kits on the Illumina MiSeq platform.
Paired raw reads were processed with cutadapt (v. 2.5) (Martin, M. Cutadapt 2011 17, 3, doi: 10.14806/ej. 17.1.200 (2011)) followed by DADA2 (v.1.12.1) (Callahan et al., Nat Methods 13, 581-581 (2016)) to generate a matrix of read counts per sample at the level of amplicon sequence variants (ASVs). […] Reads assigned to the Vibrionaceae family were removed from the analysis, these correspond to a small amount (˜1% relative abundance) of Vibrio harveyii that was spiked in some of the samples. The mean sequencing depth after filtering was 43,955 reads per sample (standard deviation=12,391). The Chao, Simpson, and Shannon measures of alpha diversity were calculated from the matrix of raw counts using the scikit-bio (v. 0.5.6) python package and compared across treatments at each sampling time using the Mann-Whitney U test. […]

[3] = tested on: AMR genes in the cecum microbiome; test: AMR gene abundance analysis (AMR++ pipeline) of cecal microbiome; conditions: day 35 cecum; for AMR gene classes changed compared to controls: Mann-Whitney U p-value<0.05; for total number of different AMR genes detected: compared to control; for total AMR gene abundance compared to control: RPKM
Protocol: AMR gene abundances per sample were determined using the AMR++ pipeline (Lakin, S. M. et al., Nucleic Acids Res 45, D574-D580 (2017)) (v. 2.0.2) starting from the raw metagenomics sequences and using the MegaRes (v. 2.0.0) database. Only genes involved in drug resistance were considered. The AMR gene counts per sample obtained from AMR++ were expressed in unites of reads per kilobase per million reads (RPKM) based on the corresponding gene lengths from the MegaRes database. RPKM values across treatments were compared using the Mann-Whitney U test.

Compound: COC[C@H]1O[C@@H](OC2OC[C@@H]3O[C@]4(O[C@H]3[C@H]2OC(=O)C(C)C)O[C@H](C)[C@@](O)(C(C)=O)[C@@H]2OCO[C@H]24)[C@@H](OC)[C@@H](O)[C@@H]1O[C@@H]1O[C@H](C)[C@H](OC)[C@H](O[C@H]2C[C@@]3(C)OC4(C[C@@H](O)[C@H](O[C@H]5C[C@@H](O)[C@H](OC(=O)c6c(C)c(Cl)c(O)c(Cl)c6OC)[C@@H](C)O5)[C@@H](C)O4)O[C@@H]3[C@@H](C)O2)[C@H]1O (stereo partly drawn) [avilamycin]
- functional processes enriched in cecal microbiome relative to controls (GSEA) (cecal microbiome [1]): protein synthesis and the Entner-Doudoroff pathway; also recorded: methionine metabolism, glycolysis, sporulation, and isoprenoid synthesis
- impact on bird performance (Ross 708 male broilers): smallest effects on performance
- similarity of 16S cecal microbiome composition to control samples (ANOSIM R score) (cecal microbiome [2]): higher similarity
- effect on AMR gene abundance profiles [3]: minor
- AMR gene classes changed compared to controls [3]: reduced the abundance of genes associated with resistance to nucleosides and macrolides
- total number of different AMR genes detected [3]: higher

Compound: Bacitracin methylene disalicylate [BMD]
- functional processes enriched in cecal microbiome relative to controls (GSEA) (cecal microbiome [1]): biotin synthesis; also recorded: propanediol utilization, molybdenum-containing cofactor synthesis and CO2 fixation via the Wood-Ljungdahl pathway; also recorded: protein synthesis and the Entner-Doudoroff pathway
- impact on bird performance (Ross 708 male broilers): smallest effects on performance
- similarity of 16S cecal microbiome composition to control samples (ANOSIM R score) (cecal microbiome [2]): higher similarity
- effect on AMR gene abundance profiles [3]: minor
- total AMR gene abundance compared to control [3]: significant increase

Compound: virginiamycin
- Salmonella and Escherichia relative abundance in cecum (cecal microbiome [1]; day 35): ~50%
- functional processes enriched in cecal microbiome relative to controls (GSEA) (cecal microbiome [1]): betaine and pyridoxine biosynthesis, stress response, bacterial secretion systems, antimicrobial resistance (AMR), and biosynthesis of Gram-negative cell wall components
- impact on bird performance (Ross 708 male broilers): increased performance compared to controls
- effect on AMR gene abundance profiles [3]: significantly different AMR gene abundance profiles
- AMR gene classes changed compared to controls [3]: enriched (Mann-Whitney U p-value<0.05) for genes involved in resistance to multiple drugs
- total AMR gene abundance compared to control [3]: significant increase
- total number of different AMR genes detected [3]: higher
